Experimental data: patent US20070128217A1 (priority 2003, published 2007)

What was measured:
[1] = tested on: antibodies in sera from SARS patients (sera 1a, 1b, 2, 6, 37, 62, London, SARS-yellow, SARS-green); assay type: binding, human; set-up: Binding of serum 6 to linear peptides of protein X1 of SARS-CoV Urbani / Binding of serum 37 to linear peptides of protein X1 of SARS-CoV Urbani / Binding of serum 6 to looped/cyclic peptide (PEPSCAN-ELISA) / Binding of serum 37 to looped/cyclic peptide (PEPSCAN-ELISA) / Binding of serum 37 to looped/cyclic peptides of protein X1 of SARS-CoV Urbani / Binding of serum 6 to linear peptides of protein X2 / Binding of serum 37 to linear peptides of protein X2 / Binding of serum 37 to looped/cyclic peptides of protein X2 of SARS-CoV Urbani / Binding of serum 6 to linear peptides of protein M of SARS-CoV Urbani / Binding of serum 37 to linear peptides of protein M of SARS-CoV Urbani / Binding of serum 6 to looped/cyclic peptides of protein M of SARS-CoV Urbani / Binding of serum 37 to looped/cyclic peptides of protein M of SARS-CoV Urbani / Binding of serum 6 to linear peptides of protein X3 of SARS-CoV Urbani / Binding of serum 37 to linear peptides of protein X3 of SARS-CoV Urbani / Binding of serum 37 to looped/cyclic peptides of protein X3 of SARS-CoV Urbani / Binding of serum 6 to linear peptides of protein X4 of SARS-CoV Urbani / Binding of serum 37 to linear peptides of protein X4 of SARS-CoV Urbani / Binding of serum 37 to looped/cyclic peptides of protein X4 of SARS-CoV Urbani / Binding of serum 6 to linear peptides of protein X5 of SARS-CoV Urbani / Binding of serum 37 to linear peptides of protein X5 of SARS-CoV Urbani / Binding of serum 37 to looped/cyclic peptides of protein X5 of SARS-CoV Urbani / Binding of serum 6 to linear peptides of protein N of SARS-CoV Urbani / Binding of serum 37 to linear peptides of protein N of SARS-CoV Urbani / Binding of serum 6 to linear peptide (PEPSCAN-ELISA) / Binding of serum 1a to looped/cyclic peptides of protein N of SARS-CoV Urbani / Binding of serum 1b to looped/cyclic peptides of protein N of SARS-CoV Urbani / Binding of serum 2 to looped/cyclic peptides of protein N of SARS-CoV Urbani / Binding of serum 6 to looped/cyclic peptides of protein N of SARS-CoV Urbani / Binding of serum 37 to looped/cyclic peptides of protein N of SARS-CoV Urbani / Binding of serum 62 to looped/cyclic peptides of protein N of SARS-CoV Urbani / Binding of serum London to looped/cyclic peptides of protein N of SARS-CoV Urbani / Binding of serum SARS-green to looped/cyclic peptides of protein N of SARS-CoV Urbani: unit not given here
[2] = tested on: control sera (pooled serum of ten healthy LUMC hospital workers; commercial negative donor pooled serum from the Dutch bloodbank); assay type: binding, human; set-up: Binding of Control serum LUMC to linear peptides / Binding of Control serum Blood-bank to linear peptides / Binding of Control serum LUMC to looped peptides / Binding of Control Serum Blood-Bank to Looped peptides / Binding of Control serum LUMC to linear peptides of the protein M of SARS-CoV Urbani / Binding of Control serum Blood-bank to linear peptides of the protein M of SARS-CoV Urbani / Binding of Control serum LUMC to looped peptides of the protein M of SARS-CoV Urbani / Binding of Control Serum Blood-Bank to Looped peptides of the protein M of SARS-CoV Urbani: unit not given here
[3] = tested on: rabbit serum obtained by immunizing a rabbit with the SARS-CoV strain Frankfurt 1; assay type: binding; set-up: Binding of a rabbit serum to linear peptides / Binding of a rabbit serum to looped peptides / Rabbit serum linear peptides / Rabbit serum looped peptides / Binding of a rabbit serum to linear peptides of protein N of SARS-CoV Urbani (Rabbit serum linear peptides) / Binding of a rabbit serum to looped/cyclic peptides of protein N of SARS-CoV Urbani (Rabbit serum looped peptides): unit not given here

GFLFLAWIMLLQFAY
Binding of serum 1a to linear peptides of protein M of SARS-CoV Urbani [1]: 0.7 | Binding of serum 1a to looped/cyclic peptides of protein M of SARS-CoV Urbani [1]: 0.6 | Binding of serum 1b to linear peptides of protein M of SARS-CoV Urbani [1]: 0.5 | Binding of serum 1b to looped/cyclic peptides of protein M of SARS-CoV Urbani [1]: 0.6 | Binding of serum 2 to linear peptides of protein M of SARS-CoV Urbani [1]: 0.5 | Binding of serum 2 to looped/cyclic peptides of protein M of SARS-CoV Urbani [1]: 0.5 | Binding of serum 6 to linear peptides of protein M of SARS-CoV Urbani [1]: 0.3 | Binding of serum 6 to looped/cyclic peptides of protein M of SARS-CoV Urbani [1]: 0.6 | Binding of serum 37 to linear peptides of protein M of SARS-CoV Urbani [1]: 0.7 | Binding of serum 37 to looped/cyclic peptides of protein M of SARS-CoV Urbani [1]: 0.6 | Binding of serum 62 to linear peptides of protein M of SARS-CoV Urbani [1]: 0.7 | Binding of serum 62 to looped/cyclic peptides of protein M of SARS-CoV Urbani [1]: 0.6 | Binding of serum London to linear peptides of protein M of SARS-CoV Urbani [1]: 0.3 | Binding of serum London to looped/cyclic peptides of protein M of SARS-CoV Urbani [1]: 0.2 | Binding of serum SARS-green to linear peptides of protein M of SARS-CoV Urbani [1]: 0.2 | Binding of serum SARS-green to looped/cyclic peptides of protein M of SARS-CoV Urbani [1]: 0.3 | Binding of serum SARS-yellow to linear peptides of protein M of SARS-CoV Urbani [1]: 0.0 | Binding of serum SARS-yellow to looped/cyclic peptides of protein M of SARS-CoV Urbani [1]: 0.4 | Binding of Control Serum Blood-Bank to Looped peptides of the protein M of SARS-CoV Urbani [2]: 0.6 | Binding of Control serum Blood-bank to linear peptides of the protein M of SARS-CoV Urbani [2]: 0.7 | Binding of Control serum LUMC to linear peptides of the protein M of SARS-CoV Urbani [2]: 0.3 | Binding of Control serum LUMC to looped peptides of the protein M of SARS-CoV Urbani [2]: 0.7 | Rabbit serum linear peptides [3]: 0.3 | Rabbit serum looped peptides [3]: 0.4

DTIVVTEGDGISTPK
Binding of serum 1a to linear peptides of protein X1 of SARS-CoV Urbani [1]: 0.5 | Binding of serum 1a to looped/cyclic peptides of protein X1 of SARS-CoV Urbani [1]: 0.3 | Binding of serum 1b to linear peptides of protein X1 of SARS-CoV Urbani [1]: 0.4 | Binding of serum 1b to looped/cyclic peptides of protein X1 of SARS-CoV Urbani [1]: 0.2 | Binding of serum 2 to linear peptides of protein X1 of SARS-CoV Urbani [1]: 0.3 | Binding of serum 2 to looped/cyclic peptides of protein X1 of SARS-CoV Urbani [1]: 0.1 | Binding of serum 6 to linear peptides of protein X1 of SARS-CoV Urbani [1]: 0.4 | Binding of serum 6 to looped/cyclic peptides of protein X1 of SARS-CoV Urbani [1]: 0.2 | Binding of serum 37 to linear peptides of protein X1 of SARS-CoV Urbani [1]: 0.4 | Binding of serum 37 to looped/cyclic peptides of protein X1 of SARS-CoV Urbani [1]: 0.3 | Binding of serum 62 to linear peptides of protein X1 of SARS-CoV Urbani [1]: 0.3 | Binding of serum 62 to looped/cyclic peptides of protein X1 of SARS-CoV Urbani [1]: 0.3 | Binding of serum London to linear peptides of protein X1 of SARS-CoV Urbani [1]: 0.2 | Binding of serum London to looped/cyclic peptides of protein X1 of SARS-CoV Urbani [1]: 0.2 | Binding of serum SARS-green to linear peptides of protein X1 of SARS-CoV Urbani [1]: 0.2 | Binding of serum SARS-green to looped/cyclic peptides of protein X1 of SARS-CoV Urbani [1]: 0.1 | Binding of serum SARS-yellow to linear peptides of protein X1 of SARS-CoV Urbani [1]: 0.1 | Binding of serum SARS-yellow to looped/cyclic peptides of protein X1 of SARS-CoV Urbani [1]: 0.1 | Binding of Control Serum Blood-Bank to Looped peptides [2]: 0.4 | Binding of Control serum Blood-bank to linear peptides [2]: 0.4 | Binding of Control serum LUMC to linear peptides [2]: 0.3 | Binding of Control serum LUMC to looped peptides [2]: 0.3 | Binding of a rabbit serum to linear peptides [3]: 0.1 | Binding of a rabbit serum to looped peptides [3]: 0.5
